What was measured:
rice [1] = assay: Test C flooded paddy test; assay type: in vivo, Oryza sativa; conditions: for Plant response rating, Rice: 500 g ai/ha, visual rating after 12 to 14 days
How it was run: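 Injury scored visually against controls on a 0 (no effect) to 100 (complete control) scale, 12 to 14 days after treatment in greenhouse. Flooded paddy plants treated at 2-leaf stage; postemergence plants at 1- to 4-leaf stage, 2 to 18 cm tall.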

barnyardgrass [2] = assay: Test C flooded paddy test; assay type: in vivo, Echinochloa crus-galli; conditions: for Plant response rating, Barnyardgrass: 500 g ai/ha, visual rating after 12 to 14 days
How it was run: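 Postemergence sprays were applied to plants 2 to 18 cm tall (1- to 4-leaf stage); in the flooded paddy test, barnyardgrass was grown to the 2-leaf stage. After 12 to 14 days in a greenhouse, injury was visually rated against untreated controls on a 0–100 scale (100 = complete control).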

morningglory = assay: Test A pre-/postemergence herbicide test; assay type: in vivo, Ipomoea spp.
How it was run: (§1)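 Sandy loam soil given preemergence directed spray; plants at 2 to 10 cm, one- to two-leaf stage, sprayed to runoff postemergence, compounds in non-phytotoxic solvent with surfactant. Injury rated visually versus untreated controls after about ten greenhouse days, 0 (no effect) to 100 (complete control); dash means not tested.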

barnyardgrass [3] = assay: Test A pre-/postemergence herbicide test; assay type: in vivo, Echinochloa crus-galli
How it was run: as §1

rice [4] = assay: Test B pre-/postemergence herbicide test; assay type: in vivo, Oryza sativa; conditions: preemergence; for Plant response rating, Rice: 500 g ai/ha
How it was run: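 Pre: seeds sown, then sprayed. Post: 1–4-leaf plants (2–18 cm) sprayed at the same time. Paddy: flooded, treated at 2-leaf stage. Formulation: non-phytotoxic solvent with surfactant. Greenhouse 13–15 days; visual 0–100 score relative to controls.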

large crabgrass = assay: Test A pre-/postemergence herbicide test; assay type: in vivo, Digitaria sanguinalis
How it was run: as §1

[5] = 62 g ai/ha, scale 0 to 100 (0 no effect, 100 complete control)
[6] = 125 g ai/ha, scale 0 to 100 (0 no effect, 100 complete control)
[7] = 250 g ai/ha, scale of 0 to 100, 0 is no effect, 100 is complete control
[8] = scale 0 to 100 (0 no effect, 100 complete control)
[9] = 125 g ai/ha, scale of 0 to 100, 0 is no effect, 100 is complete control
[10] = Postemergence, 500 g ai/ha, 0 to 100 scale, 0 no effect, 100 complete control
[11] = Postemergence, 2000 g ai/ha, 0 to 100 scale, 0 no effect, 100 complete control
[12] = Preemergence, 500 g ai/ha, visual rating, 0 to 100 scale (0 no effect, 100 complete control)
[13] = Preemergence, 2000 g ai/ha, visual rating, 0 to 100 scale (0 no effect, 100 complete control)
[14] = visual rating 0-100, 0 no effect, 100 complete control
[15] = preemergence, 500 g ai/ha, visual injury, 0 to 100 scale (0 no effect, 100 complete control)
[16] = 125 g ai/ha, 0 = no effect, 100 = complete control
[17] = visual rating, 0 = no effect, 100 = complete control

Compound | Rice plant response rating (rice [1]; [6]) | Rice plant response rating (rice [1]; [7]) | Plant response rating, Rice (rice [1]; [8]) | Barnyardgrass plant response rating (barnyardgrass [2]; [5]) | Barnyardgrass plant response rating (barnyardgrass [2]; [7]) | Plant response rating, Barnyardgrass (barnyardgrass [2]; [8]) | Morningglory plant response rating (morningglory; [10]) | Plant response rating, Morningglory (morningglory; [11]) | Morningglory plant response rating (morningglory; [13]) | Barnyardgrass plant response rating (barnyardgrass [3]; [10]) | Plant response rating, Barnyardgrass (barnyardgrass [3]; [11]) | Barnyardgrass plant response rating (barnyardgrass [3]; [13]) | Crabgrass, Large plant response rating (large crabgrass; [10]) | Plant response rating, Crabgrass, Large (large crabgrass; [11]) | Crabgrass, Large plant response rating (large crabgrass; [13]) | Barnyardgrass plant response rating (barnyardgrass [2]; [6]) | Morningglory plant response rating (morningglory; [15]) | Barnyardgrass plant response rating (barnyardgrass [3]; [15]) | Rice plant response rating (0 to 100 scale) (rice [4]; [16]) | Crabgrass, Large plant response rating (large crabgrass; [15]) | further results
CCOc1cccc(NC(=O)c2cc(C(C)(C)C)nn2CC)c1 [Compound 136] | 35 | 50 | 70 | 20 | 40 | 80 | 20 | 40 | 45 | 55 | 60 | 85 | 35 | 70 | 90 |  |  |  |  |  | Rice plant response rating (rice [1]; [5]): 30; Barnyardgrass plant response rating (barnyardgrass [2]; [9]): 25; Morningglory plant response rating (morningglory; [12]): 20; Barnyardgrass plant response rating (barnyardgrass [3]; [12]): 65; Plant response rating, Rice (rice [4]; [14]): 50; Crabgrass, Large plant response rating (large crabgrass; [12]): 85
CCn1nc(C(C)(C)C)cc1C(=O)Nc1cccc(OCCCF)c1 [Compound 138] | 5 | 5 | 40 | 0 | 15 | 30 | 15 | 40 | 45 | 15 | 30 | 80 | 20 | 30 | 90 |  |  |  |  |  | Rice plant response rating (rice [1]; [5]): 5; Barnyardgrass plant response rating (barnyardgrass [2]; [9]): 0; Morningglory plant response rating (morningglory; [12]): 15; Barnyardgrass plant response rating (barnyardgrass [3]; [12]): 30; Plant response rating, Rice (rice [4]; [14]): 40; Crabgrass, Large plant response rating (large crabgrass; [12]): 70
CCc1nc(C(C)(C)C)sc1C(=O)Nc1cccc(C(=O)NCCF)c1 [Compound 209] | 45 | 45 | 65 | 0 | 70 | 80 | 0 | 15 | 40 | 30 | 70 | 80 | 20 | 40 | 95 | 55 | 20 | 60 | 30 | 75 | Rice plant response rating (rice [1]; [5]): 0; Plant response rating, Rice (rice [4]; [14]): 70
CCc1nc(C(C)(C)C)sc1C(=O)Nc1cccc(C(=O)NC(C)(C)C)n1 [Compound 216] | 0 | 0 | 30 | 0 | 0 | 30 | 20 | 20 | 15 | 0 | 15 | 35 | 20 | 20 | 55 | 0 | 0 | 15 | 0 | 15 | Rice plant response rating (rice [1]; [5]): 0; Plant response rating, Rice (rice [4]; [17]): 70
CCNC(=O)c1ccc(F)c(NC(=O)c2cc(C(C)(C)C)nn2CC)n1 [Compound 278] | 0 | 15 | 30 | 0 | 0 | 25 | 10 | 5 | 25 | 30 | 60 | 80 | 10 | 5 | 60 | 0 | 10 | 50 | 30 | 25 | Rice plant response rating (rice [1]; 62 g ai/ha, scale 0 to 100): 0; Plant response rating, Rice (rice [4]; [17]): 80
CCn1nc(C(C)(C)C)cc1C(=O)Nc1nc(C(=O)N2CC=CC2)ccc1F [Compound 281] | 0 | 15 | 50 | 0 | 30 | 65 | 10 | 15 | 25 | 30 | 65 | 75 | 5 | 10 | 65 | 20 | 5 | 60 | 20 | 20 | Rice plant response rating (rice [1]; 62 g ai/ha, scale 0 to 100): 0; Plant response rating, Rice (rice [4]; [17]): 60
C#CCNC(=O)c1cc(NC(=O)c2cc(C(C)(C)C)nn2CC)ccn1 [Compound 283] | 0 | 0 | 0 | 0 | 0 | 10 | 0 | 0 | 10 | 10 | 35 | 30 | 10 | 10 | 90 | 0 | 0 | 0 | 0 | 15 | Rice plant response rating (rice [1]; 62 g ai/ha, scale 0 to 100): 0; Plant response rating, Rice (rice [4]; [17]): 0
CCn1nc(C(C)(C)C)cc1C(=O)Nc1cncc(C(=O)N2CC=CC2)n1 [Compound 290] | 0 | 15 | 45 | 0 | 25 | 40 | 20 | 30 | 40 | 55 | 70 | 90 | 10 | 10 | 25 | 0 | 10 | 40 | 0 | 5 | Rice plant response rating (rice [1]; 62 g ai/ha, scale 0 to 100): 0; Plant response rating, Rice (rice [4]; [17]): 80
C#CCNC(=O)c1cccc(NC(=O)c2sc(C(C)(C)C)nc2CC)c1 [Compound 319] | 35 | 35 | 70 | 0 | 50 | 65 | 15 | 25 | 60 | 10 | 60 | 80 | 10 | 50 | 100 | 25 | 20 | 55 |  | 85 | Rice plant response rating (rice [1]; 62 g ai/ha, scale 0 to 100): 0; Plant response rating (0 to 100 scale), Rice (rice [4]; 125 g ai/ha, 0 is no effect, 100 is complete control): 30; Plant response rating, Rice (rice [4]; [17]): 70
